{"source": "paper PMC11470957", "about": "“Principles of paralog-specific targeted protein degradation engaging the C-degron E3 KLHDC2” (Nature Communications, 2024)", "molecular_target": "BRD3 (Homo sapiens, UniProt Q15059)", "sequence (Q15059 whole entry)": "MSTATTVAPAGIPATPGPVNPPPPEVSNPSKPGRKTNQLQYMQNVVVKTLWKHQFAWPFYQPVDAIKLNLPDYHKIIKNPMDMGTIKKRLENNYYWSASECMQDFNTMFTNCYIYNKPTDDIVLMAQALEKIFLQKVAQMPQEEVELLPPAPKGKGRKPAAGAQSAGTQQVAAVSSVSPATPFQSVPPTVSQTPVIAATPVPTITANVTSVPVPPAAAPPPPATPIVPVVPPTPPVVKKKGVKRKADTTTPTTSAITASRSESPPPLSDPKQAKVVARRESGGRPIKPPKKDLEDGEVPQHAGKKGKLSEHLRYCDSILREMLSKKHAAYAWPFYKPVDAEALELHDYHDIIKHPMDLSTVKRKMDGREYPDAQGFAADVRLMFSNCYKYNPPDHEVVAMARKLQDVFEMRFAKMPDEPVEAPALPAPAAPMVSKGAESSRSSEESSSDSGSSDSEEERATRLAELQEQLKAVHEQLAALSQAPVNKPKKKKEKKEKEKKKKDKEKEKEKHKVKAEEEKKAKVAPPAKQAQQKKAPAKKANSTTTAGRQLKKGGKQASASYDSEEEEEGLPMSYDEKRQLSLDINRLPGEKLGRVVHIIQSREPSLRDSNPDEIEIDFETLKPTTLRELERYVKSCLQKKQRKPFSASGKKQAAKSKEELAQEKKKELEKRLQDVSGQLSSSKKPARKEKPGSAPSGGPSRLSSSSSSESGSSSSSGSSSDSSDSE", "assay": "Western blot of BRD3 levels after cellular dosing", "details": "for remaining activity at 2.19382 µM: Log SJ46420 (uM) 2.19382; for remaining activity at 2.19382 µM / remaining activity at 2.49485 µM / remaining activity at 2.79588 µM / remaining activity at 3.09691 µM / remaining activity at 3.39794 µM: Rep1, Rep2; for remaining activity at 2.49485 µM: Log SJ46420 (uM) 2.49485; for remaining activity at 2.79588 µM: Log SJ46420 (uM) 2.79588; for remaining activity at 3.09691 µM: Log SJ46420 (uM) 3.09691; for remaining activity at 3.39794 µM: Log SJ46420 (uM) 3.39794", "key": {"[1]": {"details": "22Rv1, read-out: BRD3 (DMSO = 100), 22Rv1 cells"}, "[2]": {"details": "PC-3, read-out: BRD3 (DMSO = 100), PC3 cells"}}, "note": "Like-named read-outs stand apart in the source and are kept apart here."}
{"smiles": "COC(=O)CNC(=O)Cc1csc(-c2ccc3cccc(OCCN4CCN(C(=O)C[C@@H]5N=C(c6ccc(Cl)cc6)c6c(sc(C)c6C)-n6c(C)nnc65)CC4)c3c2)n1", "note": "[SJ46420]", "values": [{"measurement": "selectivity for BRD3 over BRD4 (DC50)", "setting": "22Rv1", "result": "~ 44 fold"}, {"measurement": "remaining activity at 0.16 µM", "setting": "22Rv1, 24 h, read-out: BRD3 level relative to DMSO (100%), 22Rv1, 0.16µM, 24 h, Fig S6f", "result": "74 ± 4.4", "unit": "%"}, {"measurement": "remaining activity at 0.31 µM", "setting": "22Rv1, 24 h, read-out: BRD3 level relative to DMSO (100%), 22Rv1, 0.31µM, 24 h, Fig S6f", "result": "54 ± 11", "unit": "%"}, {"measurement": "remaining activity at 0.63 µM", "setting": "22Rv1, 24 h, read-out: BRD3 level relative to DMSO (100%), 22Rv1, 0.63µM, 24 h, Fig S6f", "result": "45 ± 4.6", "unit": "%"}, {"measurement": "remaining activity at 1.3 µM", "setting": "22Rv1, 24 h, read-out: BRD3 level relative to DMSO (100%), 22Rv1, 1.3µM, 24 h, Fig S6f", "result": "27 ± 2.2", "unit": "%"}, {"measurement": "remaining activity at 2.5 µM", "setting": "22Rv1, 24 h, read-out: BRD3 level relative to DMSO (100%), 22Rv1, 2.5µM, 24 h, Fig S6f", "result": "21 ± 3.7", "unit": "%"}, {"measurement": "remaining activity at 5 µM", "setting": "22Rv1, 24 h, read-out: BRD3 level relative to DMSO (100%), 22Rv1, 5µM, 24 h, Fig S6f", "result": "4.3 ± 3.5", "unit": "%"}, {"measurement": "remaining activity at 10 µM", "setting": "22Rv1, 24 h, read-out: BRD3 level relative to DMSO (100%), 22Rv1, 10µM, 24 h, Fig S6f", "result": "2.9 ± 2.8", "unit": "%"}, {"measurement": "remaining activity at 2.19382 µM", "setting": "[1]", "result": 71.3, "unit": "%"}, {"measurement": "remaining activity at 2.49485 µM", "setting": "[1]", "result": 46.9, "unit": "%"}, {"measurement": "remaining activity at 2.79588 µM", "setting": "[1]", "result": 42.3, "unit": "%"}, {"measurement": "remaining activity at 3.09691 µM", "setting": "[1]", "result": 29.2, "unit": "%"}, {"measurement": "remaining activity at 3.39794 µM", "setting": "[1]", "result": 23.9, "unit": "%"}, {"measurement": "Dmax", "setting": "22Rv1, read-out: BRD3 Dmax, 22Rv1, 24 h dose", "result": 93.7, "unit": "%"}, {"measurement": "remaining activity at 0.156 µM", "setting": "22Rv1, read-out: BRD3 level, Western blot quantification (DMSO = 100), Fig S6f, 22RV1 KO/rescue Dose Response, 0.156 uM", "result": 71.3, "unit": "%"}, {"measurement": "remaining activity at 0.313 µM", "setting": "22Rv1, read-out: BRD3 level, Western blot quantification (DMSO = 100), Fig S6f, 22RV1 KO/rescue Dose Response, 0.313 uM", "result": 46.9, "unit": "%"}, {"measurement": "remaining activity at 0.625 µM", "setting": "22Rv1, read-out: BRD3 level, Western blot quantification (DMSO = 100), Fig S6f, 22RV1 KO/rescue Dose Response, 0.625 uM", "result": 42.3, "unit": "%"}, {"measurement": "remaining activity at 1.25 µM", "setting": "22Rv1, read-out: BRD3 level, Western blot quantification (DMSO = 100), Fig S6f, 22RV1 KO/rescue Dose Response, 1.25 uM", "result": 29.2, "unit": "%"}, {"measurement": "remaining activity at 2.5 µM", "setting": "22Rv1, read-out: BRD3 level, Western blot quantification (DMSO = 100), Fig S6f, 22RV1 KO/rescue Dose Response, 2.5 uM", "result": 23.9, "unit": "%"}, {"measurement": "remaining activity at 0.16 µM", "setting": "24 h, read-out: BRD3 level relative to DMSO (100%), PC3, 0.16µM, 24 h, Fig S6e", "result": "107 ± 8.6", "unit": "%"}, {"measurement": "remaining activity at 0.31 µM", "setting": "24 h, read-out: BRD3 level relative to DMSO (100%), PC3, 0.31µM, 24 h, Fig S6e", "result": "72 ± 3.2", "unit": "%"}, {"measurement": "remaining activity at 0.63 µM", "setting": "24 h, read-out: BRD3 level relative to DMSO (100%), PC3, 0.63µM, 24 h, Fig S6e", "result": "32 ± 5", "unit": "%"}, {"measurement": "remaining activity at 1.3 µM", "setting": "24 h, read-out: BRD3 level relative to DMSO (100%), PC3, 1.3µM, 24 h, Fig S6e", "result": "13 ± 2.8", "unit": "%"}, {"measurement": "remaining activity at 2.5 µM", "setting": "24 h, read-out: BRD3 level relative to DMSO (100%), PC3, 2.5µM, 24 h, Fig S6e", "result": "7.3 ± 2.7", "unit": "%"}, {"measurement": "remaining activity at 5 µM", "setting": "24 h, read-out: BRD3 level relative to DMSO (100%), PC3, 5µM, 24 h, Fig S6e", "result": "4.8 ± 2.4", "unit": "%"}, {"measurement": "remaining activity at 10 µM", "setting": "24 h, read-out: BRD3 level relative to DMSO (100%), PC3, 10µM, 24 h, Fig S6e", "result": "1.8 ± 2.1", "unit": "%"}, {"measurement": "BRD3 levels in U2OS cell line with KLHDC2 knocked out", "setting": "24 h dose, Fig 6b", "result": "unaffected"}, {"measurement": "remaining activity at 0.2 µM", "setting": "AU565, 8 h, read-out: BRD3 level relative to DMSO (100%), AU565, 0.2µM, 8 h, Fig S6c", "result": "56 ± 3.4", "unit": "%"}, {"measurement": "remaining activity at 1 µM", "setting": "AU565, 8 h, read-out: BRD3 level relative to DMSO (100%), AU565, 1µM, 8 h, Fig S6c", "result": "29 ± 2.4", "unit": "%"}, {"measurement": "remaining activity at 5 µM", "setting": "AU565, 8 h, read-out: BRD3 level relative to DMSO (100%), AU565, 5µM, 8 h, Fig S6c", "result": "3.9 ± 1.1", "unit": "%"}, {"measurement": "remaining activity at 0.2 µM", "setting": "AU565, read-out: BRD3 level, Western blot quantification (DMSO = 100), Fig S6c, AU565 Cells, 0.2 uM", "result": 58.8, "unit": "%"}, {"measurement": "remaining activity at 1 µM", "setting": "AU565, read-out: BRD3 level, Western blot quantification (DMSO = 100), Fig S6c, AU565 Cells, 1 uM", "result": 30.4, "unit": "%"}, {"measurement": "remaining activity at 5 µM", "setting": "AU565, read-out: BRD3 level, Western blot quantification (DMSO = 100), Fig S6c, AU565 Cells, 5 uM", "result": 4.75, "unit": "%"}, {"measurement": "remaining activity at 2.5 µM", "setting": "HEK-293T, 24 h, read-out: BRD3 level relative to DMSO (100%), 293T, 2.5µM, 24 h, Fig S6a", "result": "44 ± 2.3", "unit": "%"}, {"measurement": "remaining activity at 5 µM", "setting": "HEK-293T, 24 h, read-out: BRD3 level relative to DMSO (100%), 293T, 5µM, 24 h, Fig S6a", "result": "18 ± 3.7", "unit": "%"}, {"measurement": "remaining activity at 2.5 µM", "setting": "HEK-293T, read-out: BRD3 level, Western blot quantification (DMSO = 100), Fig S6a, 293T cells, 2.5 uM", "result": 46, "unit": "%"}, {"measurement": "remaining activity at 5 µM", "setting": "HEK-293T, read-out: BRD3 level, Western blot quantification (DMSO = 100), Fig S6a, 293T cells, 5 uM", "result": 20.9, "unit": "%"}, {"measurement": "remaining activity at 2.5 µM", "setting": "MDA-MB-468, 24 h, read-out: BRD3 level relative to DMSO (100%), MDA-MB-468, 2.5µM, 24 h, Fig S6b", "result": "41 ± 3.3", "unit": "%"}, {"measurement": "remaining activity at 5 µM", "setting": "MDA-MB-468, 24 h, read-out: BRD3 level relative to DMSO (100%), MDA-MB-468, 5µM, 24 h, Fig S6b", "result": "20 ± 2.9", "unit": "%"}, {"measurement": "remaining activity at 10 µM", "setting": "MDA-MB-468, 24 h, read-out: BRD3 level relative to DMSO (100%), MDA-MB-468, 10µM, 24 h, Fig S6b", "result": "15 ± 2.2", "unit": "%"}, {"measurement": "remaining activity at 2 µM", "setting": "MDA-MB-468, read-out: BRD3 level, Western blot quantification (DMSO = 100), Fig S6b, MDA-MB468 Cells, 2 uM", "result": 39.3, "unit": "%"}, {"measurement": "remaining activity at 5 µM", "setting": "MDA-MB-468, read-out: BRD3 level, Western blot quantification (DMSO = 100), Fig S6b, MDA-MB468 Cells, 5 uM", "result": 17.8, "unit": "%"}, {"measurement": "remaining activity at 10 µM", "setting": "MDA-MB-468, read-out: BRD3 level, Western blot quantification (DMSO = 100), Fig S6b, MDA-MB468 Cells, 10 uM", "result": 13.8, "unit": "%"}, {"measurement": "selectivity for BRD3 over BRD4 (DC50)", "setting": "PC3", "result": "~ 28 fold"}, {"measurement": "remaining activity at 2.19382 µM", "setting": "[2]", "result": 108, "unit": "%"}, {"measurement": "remaining activity at 2.49485 µM", "setting": "[2]", "result": 70.7, "unit": "%"}, {"measurement": "remaining activity at 2.79588 µM", "setting": "[2]", "result": 29.3, "unit": "%"}, {"measurement": "remaining activity at 3.09691 µM", "setting": "[2]", "result": 11.3, "unit": "%"}, {"measurement": "remaining activity at 3.39794 µM", "setting": "[2]", "result": 5.44, "unit": "%"}, {"measurement": "remaining activity at 1 µM", "setting": "SK-BR-3, 2 h, read-out: BRD3 level relative to DMSO (100%), SKBR3, 1µM, 2hr, Fig S6g", "result": "49 ± 6.7", "unit": "%"}]}
